In US10072001B2, “Tank-binding kinase inhibitor compounds” (Gilead Sciences, Inc., priority 2014, dated 2018):
pIC50: −log10 of the molar value.

Key:
[1] = target: IKKε (Homo sapiens (Human), UniProt Q14164); test: TR-FRET kinase assay, IKKε; type: biochemical; details: full length recombinant IKKε 0.3 nM, 2x Km ATP, 1 μM peptide, 240 min at 25° C.; geometric mean of minimum four determinations
Text: Biological Assay for TBK1 and IKKs:

[2] = target: TBK1 (Homo sapiens (Human), UniProt Q9UHD2); test: TR-FRET kinase assay, TBK1; details: read-out: TBK1-IC50; full length recombinant TBK1 2.5 nM, 2x Km ATP, 1 μM peptide, 240 min at 25° C.; geometric mean of minimum four determinations
Sequence of TBK1 (Q9UHD2 whole entry): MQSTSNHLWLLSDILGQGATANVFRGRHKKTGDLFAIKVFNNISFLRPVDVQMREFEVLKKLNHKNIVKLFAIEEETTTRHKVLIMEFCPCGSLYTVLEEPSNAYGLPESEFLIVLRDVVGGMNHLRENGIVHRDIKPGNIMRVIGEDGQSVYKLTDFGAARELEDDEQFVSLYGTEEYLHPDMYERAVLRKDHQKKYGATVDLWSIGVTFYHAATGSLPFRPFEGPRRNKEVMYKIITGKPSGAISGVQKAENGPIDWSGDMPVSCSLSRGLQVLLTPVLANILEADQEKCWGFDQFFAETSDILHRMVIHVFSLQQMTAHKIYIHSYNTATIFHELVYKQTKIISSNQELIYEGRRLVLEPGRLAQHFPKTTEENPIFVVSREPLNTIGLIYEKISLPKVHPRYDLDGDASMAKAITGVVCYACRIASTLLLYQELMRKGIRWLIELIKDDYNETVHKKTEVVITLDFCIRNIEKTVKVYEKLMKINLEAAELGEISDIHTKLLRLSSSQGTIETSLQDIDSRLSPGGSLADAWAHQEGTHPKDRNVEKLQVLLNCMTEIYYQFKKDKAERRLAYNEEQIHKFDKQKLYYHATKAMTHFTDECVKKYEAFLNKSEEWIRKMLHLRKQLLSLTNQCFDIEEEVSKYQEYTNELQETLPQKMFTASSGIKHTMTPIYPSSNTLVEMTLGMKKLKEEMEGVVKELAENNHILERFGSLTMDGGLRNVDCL
Procedure: Enzymatic activity of IKKε and TBK1 was measured using a homogeneous time resolved fluorescence resonance energy transfer (TR-FRET) assay that monitors enzyme dependent phosphorylation of a biotinylated serine/threonine peptide substrate. […] TBK1 and IKKs were expressed and purified as full length recombinant proteins. Detection reagents for the assay were purchased from Cisbio. […] After an assay reaction time of 240 minutes at 25° C., reactions were terminated with EDTA.
Amount of phosphorylated peptide was determined by the addition of 125 nM streptavidin XL665 and europium cryptate labeled anti-phospho monoclonal antibody and the resulting TR-FRET signal was recorded on an Envision plate reader (Ex: 340 nm; Em: 615/665 nm; 100 μs delay and 200 μs read window). […] All IC50 values represent geometric mean values of a minimum of four determinations.

Sequence of IKKε (Q14164 whole entry): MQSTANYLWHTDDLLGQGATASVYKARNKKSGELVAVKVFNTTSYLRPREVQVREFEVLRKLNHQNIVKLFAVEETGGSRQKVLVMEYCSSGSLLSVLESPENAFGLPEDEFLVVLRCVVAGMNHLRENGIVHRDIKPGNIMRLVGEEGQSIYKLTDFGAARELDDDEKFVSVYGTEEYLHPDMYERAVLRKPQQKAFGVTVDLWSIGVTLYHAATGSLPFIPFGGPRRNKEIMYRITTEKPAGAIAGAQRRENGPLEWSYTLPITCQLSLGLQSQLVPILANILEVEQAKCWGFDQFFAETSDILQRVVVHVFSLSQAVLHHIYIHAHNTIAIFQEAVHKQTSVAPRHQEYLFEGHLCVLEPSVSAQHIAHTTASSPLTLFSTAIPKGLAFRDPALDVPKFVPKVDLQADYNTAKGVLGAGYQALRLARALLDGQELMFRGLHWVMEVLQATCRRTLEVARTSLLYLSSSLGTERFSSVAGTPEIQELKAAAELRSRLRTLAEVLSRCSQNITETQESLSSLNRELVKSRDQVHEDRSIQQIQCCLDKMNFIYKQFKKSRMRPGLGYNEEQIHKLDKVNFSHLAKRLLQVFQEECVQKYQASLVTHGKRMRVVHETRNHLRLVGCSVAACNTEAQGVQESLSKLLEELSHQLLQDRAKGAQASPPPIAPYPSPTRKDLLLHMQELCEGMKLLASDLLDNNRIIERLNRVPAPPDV

Row | SMILES | pIC50 [1] | pIC50 [2]
1 | N#Cc1cc(-c2ncnc3[nH]c(-c4ccc(C5CCN(CC(F)F)CC5)cc4)nc23)ccc1OC1CCNCC1 [Example 260, 5-(8-(4-(1-(2,2-difluoroethyl)piperidin-4-yl)phenyl)-9H-purin-6-yl)-2-(piperidin-4-yloxy)benzonitrile] | 7.07 | 7.58
2 | Cc1cc(N2CCOCC2)ccc1-c1cc2c(-c3ccc(OC4CCNCC4)c(C#N)c3)ncnc2[nH]1 [Example 120, 5-(6-(2-methyl-4-morpholinophenyl)-7H-pyrrolo[2,3-d]pyrimidin-4-yl)-2-(piperidin-4-yloxy)benzonitrile] | 6.99 | 7.65
3 | N#Cc1cc(-c2ncnc3[nH]c(-c4ccc(N5CCOCC5)cc4)nc23)ccc1OCC1CC1 [Example 202, 2-(cyclopropylmethoxy)-5-(8-(4-morpholinophenyl)-9H-purin-6-yl)benzonitrile] | < 6.00 | < 6.00
4 | COc1ccc(-c2ccnc3[nH]c(-c4ccc(N5CCOCC5)cc4)cc23)cc1C#N [Example 34, 2-methoxy-5-(2-(4-morpholinophenyl)-1H-pyrrolo[2,3-b]pyridin-4-yl)benzonitrile] | < 6.00 | 7.05
5 | COc1ccc(-c2cc3c(-c4ccc(OC5CCN(C(=O)CO)CC5)c(C#N)c4)ncnc3[nH]2)c(C)c1 [Example 131, 2-((1-(2-hydroxyacetyl)piperidin-4-yl)oxy)-5-(6-(4-methoxy-2-methylphenyl)-7H-pyrrolo[2,3-d]pyrimidin-4-yl)benzonitrile] | 7.91 | 8.25
6 | N#Cc1cc(-c2ncnc3[nH]c(-c4ccc(N5CCOCC5)c(F)c4)nc23)ccc1OC1CCOCC1 [Example 242, 5-(8-(3-fluoro-4-morpholinophenyl)-9H-purin-6-yl)-2-((tetrahydro-2H-pyran-4-yl)oxy)benzonitrile] | 6.00 | 8.48
7 | CC(C)(O)c1ccc(-c2cc3c(-c4ccc(O[C@@H]5CCN(C(=O)CO)C5)c(C#N)c4)ccnc3[nH]2)cc1 [Example 149, (R)-2-((1-(2-hydroxyacetyl)pyrrolidin-3-yl)oxy)-5-(2-(4-(2-hydroxypropan-2-yl)phenyl)-1H-pyrrolo[2,3-b]pyridin-4-yl)benzonitrile] | 8.64 | 8.81
8 | N#Cc1cc(-c2ncnc3[nH]c(-c4ccc(N5CCN(CC(F)F)CC5)cc4)cc23)ccc1OC1CCNCC1 [Example 265, 5-(6-(4-(4-(2,2-difluoroethyl)piperazin-1-yl)phenyl)-7H-pyrrolo[2,3-d]pyrimidin-4-yl)-2-(piperidin-4-yloxy)benzonitrile] | 7.23 | 7.79
9 | N#Cc1cc(-c2ccnc3[nH]c(-c4ccc(N5CCOCC5)cc4)cc23)ccc1O[C@@H]1CCN(C2COC2)C1 [Example 87, (R)-5-(2-(4-morpholinophenyl)-1H-pyrrolo[2,3-b]pyridin-4-yl)-2-((1-(oxetan-3-yl)pyrrolidin-3-yl)oxy)benzonitrile] | 7.20 | 7.57
10 | CC(C)(C)OC(=O)N1CC[C@@H](Oc2ccc(-c3ncnc4[nH]c(-c5ccc(N6CCOCC6)cc5)nc34)cc2C#N)C1 [Example 206, (R)-tert-butyl 3-(2-cyano-4-(8-(4-morpholinophenyl)-9H-purin-6-yl)phenoxy)pyrrolidine-1-carboxylate] | < 6.00 | < 6.00
11 | N#Cc1cc(-c2ncnc3[nH]c(-c4ccc(C5CCN(CC(F)F)CC5)cc4)nc23)ccc1OC1CCN(C(=O)CO)CC1 [Example 255, 5-(8-(4-(1-(2,2-difluoroethyl)piperidin-4-yl)phenyl)-9H-purin-6-yl)-2-((1-(2-hydroxyacetyl)piperidin-4-yl)oxy)benzonitrile] | 8.46 | 8.82
12 | N#Cc1cc(-c2ncnc3[nH]c(-c4ccc(N5CCOCC5)cc4)nc23)ccc1O[C@@H]1CCN(C(=O)CO)C1 [Example 208, (R)-2-((1-(2-hydroxyacetyl)pyrrolidin-3-yl)oxy)-5-(8-(4-morpholinophenyl)-9H-purin-6-yl)benzonitrile] | 8.12 | 8.77
13 | N#Cc1cc(-c2ncnc3[nH]c(-c4ccc(N5CCOCC5)cc4)nc23)ccc1O[C@@H]1CCNC1 [Example 207, (R)-5-(8-(4-morpholinophenyl)-9H-purin-6-yl)-2-(pyrrolidin-3-yloxy)benzonitrile] | 6.95 | 7.80
14 | COc1cc(-c2cc3c(-c4ccc(OC5CCOCC5)c(C#N)c4)ncnc3[nH]2)ccc1N1CCN(C(=O)CO)CC1 [Example 134, 5-(6-(4-(4-(2-hydroxyacetyl)piperazin-1-yl)-3-methoxyphenyl)-7H-pyrrolo[2,3-d]pyrimidin-4-yl)-2-((tetrahydro-2H-pyran-4-yl)oxy)benzonitrile] | 8.22 | 8.96
15 | N#Cc1cc(-c2ccnc3[nH]c(-c4ccc(N5CCOCC5)cc4)nc23)ccc1O[C@@H]1CCNC1 [Example 195, (R)-5-(2-(4-morpholinophenyl)-3H-imidazo[4,5-b]pyridin-7-yl)-2-(pyrrolidin-3-yloxy)benzonitrile] | 7.21 | 7.75
16 | N#Cc1cc(-c2ncnc3[nH]c(-c4ccc(CN5CCOCC5)cc4)nc23)ccc1OC1CCOCC1 [Example 252, 5-(8-(4-(morpholinomethyl)phenyl)-9H-purin-6-yl)-2-((tetrahydro-2H-pyran-4-yl)oxy)benzonitrile] | 8.31 | 8.48
17 | N#Cc1cc(-c2ccnc3[nH]c(-c4ccc(N5CCOCC5)cc4)cc23)ccc1O[C@@H]1CCN(CC(F)F)C1 [Example 31, (R)-2-((1-(2,2-difluoroethyl)pyrrolidin-3-yl)oxy)-5-(2-(4-morpholinophenyl)-1H-pyrrolo[2,3-b]pyridin-4-yl)benzonitrile] | 7.23 | 7.72
18 | CN1CCN(c2ccc(-c3nc4c(-c5ccc(OC6CCN(C=O)CC6)c(C#N)c5)ncnc4[nH]3)cc2)CC1 [Example 254, 2-((1-formylpiperidin-4-yl)oxy)-5-(8-(4-(4-methylpiperazin-1-yl)phenyl)-9H-purin-6-yl)benzonitrile] | 8.57 | 8.37

Next, values leading:

Row | pIC50 [1] | pIC50 [2] | SMILES
19 | 8.09 | 8.76 | N#Cc1cc(-c2ncnc3[nH]c(-c4ccc(N5CCOCC5)cc4)cc23)ccc1OC1CCOCC1 [Example 101, 5-(6-(4-morpholinophenyl)-7H-pyrrolo[2,3-d]pyrimidin-4-yl)-2-((tetrahydro-2H-pyran-4-yl)oxy)benzonitrile]
20 | 8.43 | 8.72 | N#Cc1cc(-c2ccnc3[nH]c(-c4ccc(N5CCOCC5)cc4)cc23)ccc1OC1CCN(C(=O)CO)CC1 [Example 19, 2-((1-(2-hydroxyacetyl)piperidin-4-yl)oxy)-5-(2-(4-morpholinophenyl)-1H-pyrrolo[2,3-b]pyridin-4-yl)benzonitrile]
21 | 8.27 | 8.87 | N#Cc1cc(-c2ncnc3[nH]c(-c4ccc(C(=O)N5CCCC5)cc4)cc23)ccc1OC1CCOCC1 [Example 185, 5-(6-(4-(pyrrolidine-1-carbonyl)phenyl)-7H-pyrrolo[2,3-d]pyrimidin-4-yl)-2-((tetrahydro-2H-pyran-4-yl)oxy)benzonitrile]
22 | 7.90 | 8.29 | N#Cc1cc(-c2ncnc3[nH]c(-c4ccc5c(c4)NCCO5)cc23)ccc1OC1CCOCC1 [Example 191, 5-(6-(3,4-dihydro-2H-benzo[b][1,4]oxazin-6-yl)-7H-pyrrolo[2,3-d]pyrimidin-4-yl)-2-((tetrahydro-2H-pyran-4-yl)oxy)benzonitrile]
23 | 7.74 | 8.11 | N#Cc1cc(-c2ccnc3[nH]c(C4=CCN(C5COC5)C4)cc23)ccc1OC1CCOCC1 [Example 178, 5-(2-(1-(oxetan-3-yl)-2,5-dihydro-1H-pyrrol-3-yl)-1H-pyrrolo[2,3-b]pyridin-4-yl)-2-((tetrahydro-2H-pyran-4-yl)oxy)benzonitrile]
24 | 8.02 | 8.26 | N#Cc1cc(-c2ccnc3[nH]c(-c4ccc(N)nc4)cc23)ccc1OC1CCOCC1 [Example 11, 5-(2-(6-aminopyridin-3-yl)-1H-pyrrolo[2,3-b]pyridin-4-yl)-2-((tetrahydro-2H-pyran-4-yl)oxy)benzonitrile]
25 | 6.35 | 6.19 | N#Cc1cc(-c2ccnc3[nH]c(C4CC4)cc23)ccc1OC1CCOCC1 [Example 50, 5-(2-cyclopropyl-1H-pyrrolo[2,3-b]pyridin-4-yl)-2-((tetrahydro-2H-pyran-4-yl)oxy)benzonitrile]
26 | 6.00 | 7.47 | N#Cc1cc(-c2ccnc3[nH]c(-c4ccc(-n5cccn5)cc4)cc23)ccc1OC1CCOCC1 [Example 177, 5-(2-(4-(1H-pyrazol-1-yl)phenyl)-1H-pyrrolo[2,3-b]pyridin-4-yl)-2-((tetrahydro-2H-pyran-4-yl)oxy)benzonitrile]
27 | 7.60 | 7.62 | N#Cc1cc(-c2cc3c(-c4ccc(OC5CCOCC5)c(C#N)c4)ccnc3[nH]2)ccc1OC1CCOCC1 [Example 62, 5,5′-(1H-pyrrolo[2,3-b]pyridine-2,4-diyl)bis(2-((tetrahydro-2H-pyran-4-yl)oxy)benzonitrile)]
28 | 6.94 | 7.81 | CC(C)(O)c1ccc(-c2cc3c(-c4ccc(OC5CCOCC5)c(C#N)c4)c(F)cnc3[nH]2)cc1 [Example 173, 5-(5-fluoro-2-(4-(2-hydroxypropan-2-yl)phenyl)-1H-pyrrolo[2,3-b]pyridin-4-yl)-2-((tetrahydro-2H-pyran-4-yl)oxy)benzonitrile]
29 | 7.98 | 8.20 | N#Cc1cc(-c2ccnc3[nH]c(-c4ccc5c(c4)OCC(=O)N5)cc23)ccc1OC1CCOCC1 [Example 75, 5-(2-(3-oxo-3,4-dihydro-2H-benzo[b][1,4]oxazin-7-yl)-1H-pyrrolo[2,3-b]pyridin-4-yl)-2-((tetrahydro-2H-pyran-4-yl)oxy)benzonitrile]
30 | 6.71 | 7.35 | N#Cc1cc(-c2ccnc3[nH]c(-c4ccc(N5CCOCC5)cc4)cc23)ccc1OC1CCCOC1 (stereo not drawn) [Example 239, 5-(2-(4-morpholinophenyl)-1H-pyrrolo[2,3-b]pyridin-4-yl)-2-((tetrahydro-2H-pyran-3-yl)oxy)benzonitrile]
